Reference: patent US8013159B2, “Quinoline derivatives as EP4 antagonists” (Merck Canada Inc., priority 2005, dated 2011)

Molecular target: T1, EP4 receptor (Homo sapiens, UniProt P35408)
T1 construct: expressed in transfected cells; membranes prepared by differential centrifugation
Assay: Prostanoid receptor binding assay (EP4), membranes of transfected HEK 293(ebna) cells
Conditions: representative data, read-out: Potency in Binding Assay
Procedure: Prostanoid receptor cDNAs corresponding to full length coding sequences are subcloned into the appropriate sites of mammalian expression vectors and transfected into HEK 293(ebna) cells. HEK 293(ebna) cells expressing the individual cDNAs are grown under selection and individual colonies are isolated after 2-3 weeks of growth using the cloning ring method and subsequently expanded into clonal cell lines.
Transfected HEK 293(ebna) cells are maintained in culture, harvested and membranes are prepared by differential centrifugation, following lysis of the cells in the presence of protease inhibitors, for use in receptor binding assays. Prostanoid receptor binding assays (for DP1, DP2 (CRTH2), EP 1, EP2, EP3-11, EP4, FP, IP, and TP) are performed in 10 mM MES/KOH (pH 6.0) (EPs, FP and TP) or 10 mM HEPES/KOH (pH 7.4) (DPs and IP), containing 1 mM EDTA, 2.5-30 mM divalent cation and the appropriate radioligand. Synthetic compounds are added in dimethylsulfoxide which is kept constant at 1% (v/v) in all incubations. The reaction is initiated by addition of membrane protein. Non-specific binding is determined in the presence of 10 μM of the corresponding non-radioactive prostanoid. Incubations are conducted for 60-90 min at room temperature or 30° C. and terminated by rapid filtration. Specific binding is calculated by subtracting non specific binding from total binding. The residual specific binding at each ligand concentration is calculated and expressed as a function of ligand concentration in order to construct sigmoidal concentration-response curves. The binding affinity of the compounds is determined by calculating the equilibrium inhibition constant (Ki) from the equation Ki=InPt/1+[radioligand]/Kd where Kd is the equilibrium dissociation constant for the radioligand:receptor interaction and InPt is the inflection point of the dose-response curves.

T1 sequence (P35408 whole entry): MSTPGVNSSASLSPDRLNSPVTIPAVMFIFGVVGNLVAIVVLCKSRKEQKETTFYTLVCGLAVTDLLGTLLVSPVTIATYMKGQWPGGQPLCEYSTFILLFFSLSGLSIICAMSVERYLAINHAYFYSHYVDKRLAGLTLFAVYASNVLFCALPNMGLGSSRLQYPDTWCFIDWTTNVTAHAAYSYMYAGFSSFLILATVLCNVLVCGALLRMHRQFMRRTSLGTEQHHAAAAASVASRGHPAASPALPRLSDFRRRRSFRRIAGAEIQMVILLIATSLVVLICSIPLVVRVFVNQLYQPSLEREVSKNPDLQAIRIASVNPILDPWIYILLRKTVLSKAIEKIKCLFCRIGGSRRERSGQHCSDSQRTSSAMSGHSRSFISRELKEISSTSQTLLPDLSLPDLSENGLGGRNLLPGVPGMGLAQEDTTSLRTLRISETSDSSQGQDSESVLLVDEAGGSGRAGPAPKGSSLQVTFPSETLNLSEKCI

| Structure (SMILES) | IC50 |
| --- | --- |
| CCOc1c2c(c(OCC)c3ncccc13)CN(c1ccc(CS(=O)(=O)NC(=O)Cc3ccccc3OC)cc1C)C2=O [Example 1, N-{[4-(5,9-diethoxy-6-oxo-6,8-dihydro-7H-pyrrolo[3,4-g]quinolin-7-yl)-3-methylbenzyl]sulfonyl}-2-(2-methoxyphenyl)acetamide] | 0.47 nM |
| CCOc1c2c(c(OCC)c3ncccc13)CN(c1ccc(CS(=O)(=O)NC(=O)Cc3cccc4ccccc34)cc1C)C2=O [Example 19, N-{[4-(5,9-diethoxy-6-oxo-6,8-dihydro-7H-pyrrolo[3,4-g]quinolin-7-yl)-3-methylbenzyl]sulfonyl}-2-(1-naphthyl)acetamide] | 0.72 nM |
| CCOc1c2c(c(OCC)c3ncccc13)CN(c1ccc(CS(=O)(=O)NC(=O)Cc3ccccc3C(F)(F)F)cc1C)C2=O [Example 7, N-{[4-(5,9-diethoxy-6-oxo-6,8-dihydro-7H-pyrrolo[3,4-g]quinolin-7-yl)-3-methylbenzyl]sulfonyl}-2-[2-(trifluoromethyl)phenyl]acetamide] | 0.42 nM |

Further lines, results first:

| IC50 | Structure (SMILES) |
| --- | --- |
| 0.83 nM | COc1cccc(OC)c1C1(C(=O)NS(=O)(=O)Cc2ccc(N3Cc4c(c(OCC(F)(F)F)c5cccnc5c4OCC(F)(F)F)C3=O)c(C)c2)CC1 [Example 33, (1-(2,6-dimethoxyphenyl)-N-({3-methyl-4-[6-oxo-5,9-bis(2,2,2-trifluoroethoxy)-6,8-dihydro-7H-pyrrolo[3,4-g]quinolin-7-yl]benzyl}sulfonyl)cyclopropanecarboxamide)] |
| 0.76 nM | CCOc1c2c(c(OCC)c3ncccc13)CN(c1ccc(CS(=O)(=O)NC(=O)C3(c4ccc(Cl)cc4Cl)CC3)cc1C)C2=O [Example 39, 1-(2,4-dichlorophenyl)-N-{[4-(5,9-diethoxy-6-oxo-6,8-dihydro-7H-pyrrolo[3,4-g]quinolin-7-yl)-3-methylbenzyl]sulfonyl}cyclopropane-carboxamide] |
| 0.61 nM | COc1cccc(OC)c1C1(C(=O)NS(=O)(=O)Cc2ccc(N3Cc4c(c(OCC(F)(F)F)c5cccnc5c4OCC(F)(F)F)C3=O)c(Cl)c2)CC1 [Example 63, N-({3-chloro-4-[6-oxo-5,9-bis(2,2,2-trifluoroethoxy)-6,8-dihydro-7H-pyrrolo[3,4-g]quinolin-7-yl]benzyl}sulfonyl)-1-(2,6-dimethoxyphenyl)cyclopropane-carboxamide] |
